The values below come from ChEMBL document CHEMBL5042477, “Potent Cyclic Peptide Inhibitors of FXIIa Discovered by mRNA Display with Genetic Code Reprogramming” (J Med Chem, 2021).

pIC50: −log10 of the molar value. Where a SMILES comes first, the peptide text is derived from it. Bridges are numbered along the chain shown (N, C = ends). [ ]: non-standard residue; d: D form. Phe(3-CF3) = N[C@@H](Cc1cccc(C(F)(F)F)c1)C(=O)O; Phe(4-CF3) = N[C@@H](Cc1ccc(C(F)(F)F)cc1)C(=O)O; Phe(2-OMe) = COc1ccccc1C[C@H](N)C(=O)O; Phe(3-F) = N[C@@H](Cc1cccc(F)c1)C(=O)O; Phe(3-Me) = Cc1cccc(C[C@H](N)C(=O)O)c1; Phe(4-F) = N[C@@H](Cc1ccc(F)cc1)C(=O)O; Phe(2-Me) = Cc1ccccc1C[C@H](N)C(=O)O; hTyr = N[C@@H](CCc1ccc(O)cc1)C(=O)O; hArg = N=C(N)NCCCC[C@H](N)C(=O)O; hPhe = N[C@@H](CCc1ccccc1)C(=O)O; 2Pal = N[C@@H](Cc1ccccn1)C(=O)O; Tic = O=C(O)[C@@H]1Cc2ccccc2CN1; Cha = N[C@@H](CC1CCCCC1)C(=O)O

This assay concerns the target T1, Coagulation factor XII (Homo sapiens, UniProt P00748).
T1 sequence (P00748 whole entry): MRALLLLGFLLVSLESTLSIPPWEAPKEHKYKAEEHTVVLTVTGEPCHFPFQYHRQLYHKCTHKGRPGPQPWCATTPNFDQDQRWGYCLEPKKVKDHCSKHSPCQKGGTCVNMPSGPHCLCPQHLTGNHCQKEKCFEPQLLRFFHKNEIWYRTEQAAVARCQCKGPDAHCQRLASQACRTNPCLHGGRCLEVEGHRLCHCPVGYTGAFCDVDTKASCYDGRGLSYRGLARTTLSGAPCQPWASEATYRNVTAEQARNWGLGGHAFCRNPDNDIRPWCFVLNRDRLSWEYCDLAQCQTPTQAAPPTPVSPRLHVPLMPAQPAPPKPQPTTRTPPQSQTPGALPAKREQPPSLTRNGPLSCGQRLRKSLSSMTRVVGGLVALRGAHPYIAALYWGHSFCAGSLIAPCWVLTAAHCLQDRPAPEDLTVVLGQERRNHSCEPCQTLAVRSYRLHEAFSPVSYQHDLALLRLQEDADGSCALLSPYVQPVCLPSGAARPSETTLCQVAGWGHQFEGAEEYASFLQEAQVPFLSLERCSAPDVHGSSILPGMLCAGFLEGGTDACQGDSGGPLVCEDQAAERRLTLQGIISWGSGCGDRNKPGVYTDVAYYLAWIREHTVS
Briefly: Inhibition of human factor 12a using H-D-Pro-Phe-Arg-p-nitroanilide as chromogenic substrate assessed as liberation of p-nitroaniline measured every 5 mins for 60 min by multimode plate reader analysis.
In general, pIC50 refers to the IC50 on a negative log10 scale, so that one unit is a factor of ten. On to `CC(C)C[C@@H]1NC(=O)[C@H](Cc2ccc(O)cc2)NC(=O)CSC[C@@H](C(N)=O)NC(=O)CNC(=O)CNC(=O)[C@H](CCCNC(=N)N)NC(=O)[C@H](CC(=O)O)NC(=O)[C@H](CCCCN)NC(=O)[C@@H]2CCCN2C(=O)[C@H](CCCNC(=N)N)NC(=O)[C@H](Cc2ccccc2)NC(=O)[C@H](CCCCN)NC1=O` ({CH2CO}-YLKFRPKDRGGC-NH2; thioether N-12), for which the pIC50 is 6.52.
On to `CC(C)C[C@@H]1NC(=O)[C@H](Cc2ccccn2)NC(=O)CSC[C@@H](C(N)=O)NC(=O)CNC(=O)CNC(=O)[C@H](CCCNC(=N)N)NC(=O)[C@H](CC(=O)O)NC(=O)[C@H](CCCCN)NC(=O)[C@@H]2CCCN2C(=O)[C@H](CCCNC(=N)N)NC(=O)[C@H](Cc2ccccc2)NC(=O)[C@H](CCCNC(=N)N)NC1=O` ({CH2CO}-[2Pal]LRFRPKDRGGC-NH2; thioether N-12), for which the pIC50 was 4.96.
In the case of `CC(C)C[C@@H]1NC(=O)[C@H](Cc2ccc(O)cc2)NC(=O)CSC[C@@H](C(N)=O)NC(=O)[C@H](CCCNC(=N)N)NC(=O)[C@H](Cc2ccccc2)NC(=O)[C@H](CCCNC(=N)N)NC1=O` ({CH2CO}-YLRFRC-NH2; thioether N-6), the pIC50 is 3.70.
With `Cc1cccc(C[C@@H]2NC(=O)[C@H](CCCNC(=N)N)NC(=O)[C@H](CC(C)C)NC(=O)[C@H](Cc3ccc(O)cc3)NC(=O)CSC[C@@H](C(N)=O)NC(=O)CNC(=O)CNC(=O)[C@H](CCCNC(=N)N)NC(=O)[C@H](CC(=O)O)NC(=O)[C@H](CCCCN)NC(=O)[C@@H]3CCCN3C(=O)[C@H](CCCNC(=N)N)NC2=O)c1` ({CH2CO}-YLR[Phe(3-Me)]RPKDRGGC-NH2; thioether N-12), the pIC50 was 7.14.
In the case of `COc1ccccc1C[C@@H]1NC(=O)CSC[C@@H](C(N)=O)NC(=O)CNC(=O)CNC(=O)[C@H](CCCNC(=N)N)NC(=O)[C@H](CC(=O)O)NC(=O)[C@H](CCCCN)NC(=O)[C@@H]2CCCN2C(=O)[C@H](CCCNC(=N)N)NC(=O)[C@H](Cc2ccccc2)NC(=O)[C@H](CCCNC(=N)N)NC(=O)[C@H](CC(C)C)NC1=O` ({CH2CO}-[Phe(2-OMe)]LRFRPKDRGGC-NH2; thioether N-12) it was 3.40; in that of `CC(C)C[C@@H]1NC(=O)[C@H](Cc2ccc(O)cc2)NC(=O)CSC[C@@H](C(N)=O)NC(=O)CNC(=O)CNC(=O)[C@H](CCCNC(=N)N)NC(=O)[C@H](CC(=O)O)NC(=O)[C@H](CCCCN)NC(=O)[C@@H]2CCCN2C(=O)[C@H](CCCNC(=N)N)NC(=O)[C@H](CCc2ccc(O)cc2)NC(=O)[C@H](CCCNC(=N)N)NC1=O` ({CH2CO}-YLR[hTyr]RPKDRGGC-NH2; thioether N-12), 6.25.
Take `CC(C)C[C@@H]1NC(=O)[C@H](Cc2ccc(O)cc2)NC(=O)CSC[C@@H](C(N)=O)NC(=O)CNC(=O)CNC(=O)[C@H](CCCNC(=N)N)NC(=O)[C@H](CC(=O)O)NC(=O)[C@H](CCCCN)NC(=O)[C@@H]2CCCN2C(=O)[C@H](CCCNC(=N)N)NC(=O)[C@H](Cc2ccc(F)cc2)NC(=O)[C@H](CCCNC(=N)N)NC1=O` ({CH2CO}-YLR[Phe(4-F)]RPKDRGGC-NH2; thioether N-12): the negative-log IC50 (pIC50) was 7.34.
Take `CC(C)C[C@@H]1NC(=O)[C@H](Cc2ccc(O)cc2)NC(=O)CSC[C@@H](C(N)=O)NC(=O)CNC(=O)CNC(=O)[C@H](CCCNC(=N)N)NC(=O)[C@H](CC(=O)O)NC(=O)[C@H](CCCCN)NC(=O)[C@@H]2CCCN2C(=O)[C@H](CCCNC(=N)N)NC(=O)[C@@H]2Cc3ccccc3CN2C(=O)[C@H](CCCNC(=N)N)NC1=O` ({CH2CO}-YLR[Tic]RPKDRGGC-NH2; thioether N-12): the pIC50 was 4.66.
For the compound `CC(C)C[C@@H]1NC(=O)[C@H](Cc2ccc(O)cc2)NC(=O)CSC[C@@H](C(N)=O)NC(=O)CNC(=O)CNC(=O)[C@H](CCCNC(=N)N)NC(=O)[C@H](CC(=O)O)NC(=O)[C@H](CCCCN)NC(=O)[C@@H]2CCCN2C(=O)[C@H](CCCCNC(=N)N)NC(=O)[C@H](Cc2ccccc2)NC(=O)[C@H](CCCNC(=N)N)NC1=O` ({CH2CO}-YLRF[hArg]PKDRGGC-NH2; thioether N-12), the pIC50 was 6.33.
Consider `CC(C)C[C@@H]1NC(=O)[C@H](Cc2ccc(O)cc2)NC(=O)CSC[C@@H](C(N)=O)NC(=O)CNC(=O)CNC(=O)[C@H](CCCNC(=N)N)NC(=O)[C@H](CC(=O)O)NC(=O)[C@H](CCCCN)NC(=O)[C@@H]2CCCN2C(=O)[C@H](CCCNC(=N)N)NC(=O)[C@H](Cc2ccc(O)cc2)NC(=O)[C@H](CCCNC(=N)N)NC1=O` ({CH2CO}-YLRYRPKDRGGC-NH2; thioether N-12), for which the pIC50 was 6.59.
`CC(C)C[C@@H]1NC(=O)[C@H](Cc2cccc(C(F)(F)F)c2)NC(=O)CSC[C@@H](C(N)=O)NC(=O)CNC(=O)CNC(=O)[C@H](CCCNC(=N)N)NC(=O)[C@H](CC(=O)O)NC(=O)[C@H](CCCCN)NC(=O)[C@@H]2CCCN2C(=O)[C@H](CCCNC(=N)N)NC(=O)[C@H](Cc2ccccc2)NC(=O)[C@H](CCCNC(=N)N)NC1=O` ({CH2CO}-[Phe(3-CF3)]LRFRPKDRGGC-NH2; thioether N-12): the pIC50 is 4.08.
As for `Cc1ccccc1C[C@@H]1NC(=O)[C@H](CCCNC(=N)N)NC(=O)[C@H](CC(C)C)NC(=O)[C@H](Cc2ccc(O)cc2)NC(=O)CSC[C@@H](C(N)=O)NC(=O)CNC(=O)CNC(=O)[C@H](CCCNC(=N)N)NC(=O)[C@H](CC(=O)O)NC(=O)[C@H](CCCCN)NC(=O)[C@@H]2CCCN2C(=O)[C@H](CCCNC(=N)N)NC1=O` ({CH2CO}-YLR[Phe(2-Me)]RPKDRGGC-NH2; thioether N-12), the pIC50 was 7.37.
For `CC(C)C[C@@H]1NC(=O)[C@H](CCc2ccccc2)NC(=O)CSC[C@@H](C(N)=O)NC(=O)CNC(=O)CNC(=O)[C@H](CCCNC(=N)N)NC(=O)[C@H](CC(=O)O)NC(=O)[C@H](CCCCN)NC(=O)[C@@H]2CCCN2C(=O)[C@H](CCCNC(=N)N)NC(=O)[C@H](Cc2ccccc2)NC(=O)[C@H](CCCNC(=N)N)NC1=O` ({CH2CO}-[hPhe]LRFRPKDRGGC-NH2; thioether N-12), the pIC50 is 3.39.
Consider `CC(C)C[C@@H]1NC(=O)[C@H](Cc2ccc(O)cc2)NC(=O)CSC[C@@H](C(N)=O)NC(=O)CNC(=O)CNC(=O)[C@H](CCCNC(=N)N)NC(=O)[C@H](CC(=O)O)NC(=O)[C@H](CCCCN)NC(=O)[C@@H]2CCCN2C(=O)[C@H](CCCNC(=N)N)NC(=O)[C@H](CCc2ccccc2)NC(=O)[C@H](CCCNC(=N)N)NC1=O` ({CH2CO}-YLR[hPhe]RPKDRGGC-NH2; thioether N-12), for which the pIC50 was 6.13.
In the case of `CC(C)C[C@@H]1NC(=O)[C@H](Cc2ccc(O)cc2)NC(=O)CSC[C@@H](C(N)=O)NC(=O)CNC(=O)CNC(=O)[C@H](CCCNC(=N)N)NC(=O)[C@H](CC(=O)O)NC(=O)[C@H](CCCCN)NC(=O)[C@@H]2CCCN2C(=O)[C@H](CCCNC(=N)N)NC(=O)[C@H](CC2CCCCC2)NC(=O)[C@H](CCCNC(=N)N)NC1=O` ({CH2CO}-YLR[Cha]RPKDRGGC-NH2; thioether N-12) it was 7.28.
In the case of `CC(C)C[C@@H]1NC(=O)[C@H](Cc2ccc(O)cc2)NC(=O)CSC[C@@H](C(N)=O)NC(=O)CNC(=O)CNC(=O)[C@H](C)NC(=O)[C@H](CC(=O)O)NC(=O)[C@H](CCCCN)NC(=O)[C@@H]2CCCN2C(=O)[C@H](CCCNC(=N)N)NC(=O)[C@H](Cc2ccccc2)NC(=O)[C@H](CCCNC(=N)N)NC1=O` ({CH2CO}-YLRFRPKDAGGC-NH2; thioether N-12), the negative logarithm of the IC50 (pIC50) is 6.19.
Take `CC(C)C[C@@H]1NC(=O)[C@H](Cc2ccc(O)cc2)NC(=O)CSC[C@@H](C(N)=O)NC(=O)CNC(=O)CNC(=O)[C@H](CCCNC(=N)N)NC(=O)[C@H](CC(=O)O)NC(=O)[C@H](CCCCN)NC(=O)[C@@H]2CCCN2C(=O)[C@H](CCCNC(=N)N)NC(=O)[C@H](Cc2cccc(F)c2)NC(=O)[C@H](CCCNC(=N)N)NC1=O` ({CH2CO}-YLR[Phe(3-F)]RPKDRGGC-NH2; thioether N-12): the pIC50 is 7.18.
Consider `CC(C)C[C@@H]1NC(=O)[C@H](Cc2ccc(C(F)(F)F)cc2)NC(=O)CSC[C@@H](C(N)=O)NC(=O)CNC(=O)CNC(=O)[C@H](CCCNC(=N)N)NC(=O)[C@H](CC(=O)O)NC(=O)[C@H](CCCCN)NC(=O)[C@@H]2CCCN2C(=O)[C@H](CCCNC(=N)N)NC(=O)[C@H](Cc2ccccc2)NC(=O)[C@H](CCCNC(=N)N)NC1=O` ({CH2CO}-[Phe(4-CF3)]LRFRPKDRGGC-NH2; thioether N-12), for which the negative logarithm of the IC50 (pIC50) was 4.13.
`CC(C)C[C@@H]1NC(=O)[C@H](Cc2ccc(O)cc2)NC(=O)CSC[C@@H](C(N)=O)NC(=O)CNC(=O)CNC(=O)[C@H](C)NC(=O)[C@H](CC(N)=O)NC(=O)[C@H]([C@@H](C)O)NC(=O)[C@@H]2CCCN2C(=O)[C@H](CCCCN)NC(=O)[C@H](CC(C)C)NC(=O)[C@H](CCCNC(=N)N)NC1=O` ({CH2CO}-YLRLKPTNAGGC-NH2; thioether N-12): the pIC50 is 6.00.
With `COc1ccc(C[C@@H]2NC(=O)[C@H](CCCNC(=N)N)NC(=O)[C@H](CC(C)C)NC(=O)[C@H](Cc3ccc(O)cc3)NC(=O)CSC[C@@H](C(N)=O)NC(=O)CNC(=O)CNC(=O)[C@H](CCCNC(=N)N)NC(=O)[C@H](CC(=O)O)NC(=O)[C@H](CCCCN)NC(=O)[C@@H]3CCCN3C(=O)[C@H](CCCNC(=N)N)NC2=O)cc1` ({CH2CO}-YLRY(Me)RPKDRGGC-NH2; thioether N-12), the pIC50 was 6.25.
